Measurements taken from patent publication US20170217976A1, “6-(AMINO ACID)-MORPHINAN DERIVATIVES IN COMBINATION WITH PERMEATION […] FOR USE AS AN ORALLY, […], TRA[…] NASALLY AD[…]” (C[…], priority 2014, published 2017).
Where two headings read alike, the source gives them in different places.

Columns and labels:
DOR = molecular target: T1, DOR (Rattus norvegicus, UniProt P33533); assay: Opioid receptor binding, DOR, rat brain membranes
T1 construct: from tissue

MOR = molecular target: T2, MOR (Rattus norvegicus, UniProt P33535); assay: Opioid receptor binding, MOR, rat brain membranes
T2 construct: from tissue

KOR = molecular target: T3, KOR (Cavia porcellus, UniProt P41144); assay: Opioid receptor binding, KOR, guinea pig brain membranes
T3 construct: from tissue

[1] = in vitro binding assay, rat brain membranes, read-out: Binding Ki (nM) DOR
[2] = in vitro binding assay, rat brain membranes, read-out: Binding Ki (nM) MOR
[3] = in vitro binding assay, guinea pig brain membranes, read-out: Binding Ki (nM) KOR
[4] = Binding Ki (nM) DOR, in vitro binding assay, rat brain membranes
[5] = Binding Ki (nM) MOR, in vitro binding assay, rat brain membranes
[6] = Binding Ki (nM) KOR, in vitro binding assay, guinea pig brain membranes
[7] = Binding Ki DOR, Table 2-6, rat brain membranes
[8] = Binding Ki MOR, Table 2-6, rat brain membranes
[9] = Binding Ki KOR, Table 2-6, guinea pig brain membranes

T3 sequence (P41144 whole entry): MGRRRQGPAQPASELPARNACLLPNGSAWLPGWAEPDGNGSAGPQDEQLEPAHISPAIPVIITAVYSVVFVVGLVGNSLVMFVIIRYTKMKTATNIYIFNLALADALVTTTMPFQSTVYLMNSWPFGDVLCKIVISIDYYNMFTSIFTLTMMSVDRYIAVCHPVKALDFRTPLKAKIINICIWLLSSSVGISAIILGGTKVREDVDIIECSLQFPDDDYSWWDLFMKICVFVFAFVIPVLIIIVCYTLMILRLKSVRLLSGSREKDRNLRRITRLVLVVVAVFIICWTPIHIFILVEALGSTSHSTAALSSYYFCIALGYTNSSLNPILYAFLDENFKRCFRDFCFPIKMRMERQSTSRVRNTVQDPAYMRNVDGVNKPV
T1 sequence (P33533 whole entry): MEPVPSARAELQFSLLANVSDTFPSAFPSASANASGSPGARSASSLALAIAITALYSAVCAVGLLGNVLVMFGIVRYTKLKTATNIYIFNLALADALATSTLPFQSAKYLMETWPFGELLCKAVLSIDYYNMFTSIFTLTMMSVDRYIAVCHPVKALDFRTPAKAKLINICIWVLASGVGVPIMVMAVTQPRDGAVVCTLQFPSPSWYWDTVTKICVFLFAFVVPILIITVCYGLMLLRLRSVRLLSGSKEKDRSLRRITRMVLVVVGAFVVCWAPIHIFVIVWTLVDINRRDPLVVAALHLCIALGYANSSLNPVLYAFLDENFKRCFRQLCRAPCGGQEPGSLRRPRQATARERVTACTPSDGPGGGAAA
T2 sequence (P33535 whole entry): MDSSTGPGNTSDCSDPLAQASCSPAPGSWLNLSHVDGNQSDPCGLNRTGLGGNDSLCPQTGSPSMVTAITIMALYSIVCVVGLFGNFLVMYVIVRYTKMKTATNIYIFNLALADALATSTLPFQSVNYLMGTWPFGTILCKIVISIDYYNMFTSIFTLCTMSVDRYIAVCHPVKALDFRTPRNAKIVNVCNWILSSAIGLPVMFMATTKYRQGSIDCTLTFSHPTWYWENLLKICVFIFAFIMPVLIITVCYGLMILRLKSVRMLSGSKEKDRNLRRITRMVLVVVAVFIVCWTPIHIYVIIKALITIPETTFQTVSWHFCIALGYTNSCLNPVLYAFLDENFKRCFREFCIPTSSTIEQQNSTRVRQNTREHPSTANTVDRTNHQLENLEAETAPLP

Row | Structure (SMILES) | Ki (DOR; [1]) [nM] | Ki (MOR; [2]) [nM] | Ki (KOR; [3]) [nM] | Ki (DOR; [4]) [nM] | Ki (MOR; [5]) [nM] | Ki (KOR; [6]) [nM] | other results
1 | CO[C@@]12CC[C@H](N[C@@H](CC(N)=O)C(=O)OC(C)(C)C)[C@@H]3Oc4c(O)ccc5c4[C@@]31CCN(C)[C@@H]2C5 [26-t-Bu ester] | 0.33 | 0.45 | 5.33 | – | – | – | –
2 | CO[C@@]12CC[C@@H](N[C@@H](CC(N)=O)C(=O)OC(C)(C)C)[C@@H]3Oc4c(O)ccc5c4[C@@]31CCN(C)[C@@H]2C5 [27-t-Bu ester] | – | – | – | 0.66 | 0.6 | 75.8 | –
3 | CO[C@@]12CC[C@H](N[C@H](C(=O)OC(C)(C)C)C(C)C)[C@@H]3Oc4c(O)ccc5c4[C@@]31CCN(C)[C@@H]2C5 [28-t-Bu ester] | 0.18 | 0.25 | 10.5 | – | – | – | –
4 | CO[C@@]12CC[C@@H](N[C@H](C(=O)OC(C)(C)C)C(C)C)[C@@H]3Oc4c(O)ccc5c4[C@@]31CCN(C)[C@@H]2C5 [29-t-Bu ester] | – | – | – | 0.86 | 1.03 | 214 | –
5 | CO[C@@]12CC[C@H](N[C@@H](C(=O)OC(C)(C)C)C(C)C)[C@@H]3Oc4c(O)ccc5c4[C@@]31CCN(C)[C@@H]2C5 [30-t-Bu ester] | 0.093 | 0.11 | 22.7 | – | – | – | –
6 | CO[C@@]12CC[C@@H](N[C@@H](C(=O)OC(C)(C)C)C(C)C)[C@@H]3Oc4c(O)ccc5c4[C@@]31CCN(C)[C@@H]2C5 [31-t-Bu ester] | 0.21 | 1.98 | 206 | – | – | – | –
7 | CO[C@@]12CC[C@H](N[C@H](C(=O)N[C@@H](Cc3ccc(O)cc3)C(=O)OC(C)(C)C)C(C)C)[C@@H]3Oc4c(O)ccc5c4[C@@]31CCN(C)[C@@H]2C5 [32-t-Bu ester] | 0.17 | – | 3.5 | – | 0.11 | – | –
8 | CO[C@@]12CC[C@H](N[C@H](C(=O)OC(C)(C)C)[C@@H](C)O)[C@@H]3Oc4c(O)ccc5c4[C@@]31CCN(C)[C@@H]2C5 [34-t-Bu ester] | – | – | – | 0.37 | 0.2 | 9.24 | –
9 | CO[C@@]12CC[C@@H](N[C@H](C(=O)OC(C)(C)C)[C@@H](C)O)[C@@H]3Oc4c(O)ccc5c4[C@@]31CCN(C)[C@@H]2C5 [35-t-Bu ester] | – | – | – | 0.65 | 0.51 | 102 | –
10 | CO[C@@]12CC[C@H](N[C@@H](CO)C(=O)OC(C)(C)C)[C@@H]3Oc4c(O)ccc5c4[C@@]31CCN(C)[C@@H]2C5 [36-t-Bu ester] | – | – | – | 0.17 | 0.2 | 6.2 | –
11 | CO[C@@]12CC[C@@H](N[C@@H](CO)C(=O)OC(C)(C)C)[C@@H]3Oc4c(O)ccc5c4[C@@]31CCN(C)[C@@H]2C5 [37-t-Bu ester] | 0.64 | 0.6 | 83.3 | – | – | – | –
12 | CO[C@@]12CC[C@H](N[C@@H](CCCCN)C(=O)OC(C)(C)C)[C@@H]3Oc4c(O)ccc5c4[C@@]31CCN(C)[C@@H]2C5 [38-t-Bu ester] | 0.092 | 0.17 | 0.89 | – | – | – | –
13 | CO[C@@]12CC[C@@H](N[C@@H](CCCCN)C(=O)OC(C)(C)C)[C@@H]3Oc4c(O)ccc5c4[C@@]31CCN(C)[C@@H]2C5 [39-t-Bu ester] | 0.88 | 0.58 | 21.4 | – | – | – | –
14 | CO[C@@]12CC[C@H](N[C@@H](CC(C)C)C(=O)OC(C)(C)C)[C@@H]3Oc4c(O)ccc5c4[C@@]31CCN(C)[C@@H]2C5 [40-t-Bu ester] | – | – | – | 0.13 | 0.087 | 8.07 | –
15 | CO[C@@]12CC[C@@H](N[C@@H](CC(C)C)C(=O)OC(C)(C)C)[C@@H]3Oc4c(O)ccc5c4[C@@]31CCN(C)[C@@H]2C5 [41-t-Bu ester] | – | – | – | 0.42 | 0.57 | 240 | –
16 | CO[C@@]12CC[C@@H](N[C@@H](Cc3c[nH]c4ccccc34)C(=O)OC(C)(C)C)[C@@H]3Oc4c(O)ccc5c4[C@@]31CCN(C)[C@@H]2C5 [46-t-Bu ester] | 0.36 | 0.26 | 9.89 | – | – | – | –
17 | CCO[C@@]12CC[C@H](N[C@@H](Cc3ccccc3)C(=O)OC(C)(C)C)[C@@H]3Oc4c(O)ccc5c4[C@@]31CCN(CC1CC1)[C@@H]2C5 [55-tBu ester] | – | – | – | – | – | – | Ki (DOR; [7]): 2.38 nM; Ki (MOR; [8]): 0.63 nM; Ki (KOR; [9]): 4.12 nM
18 | CCO[C@@]12CC[C@@H](N[C@@H](Cc3ccccc3)C(=O)OC(C)(C)C)[C@@H]3Oc4c(O)ccc5c4[C@@]31CCN(CC1CC1)[C@@H]2C5 [56-tBu ester] | – | – | – | – | – | – | Ki (DOR; [7]): 6.33 nM; Ki (MOR; [8]): 2 nM; Ki (KOR; [9]): 17.9 nM
19 | CO[C@@]12CC[C@H](N[C@@H](Cc3ccccc3)C(=O)OC(C)(C)C)[C@@H]3Oc4c(O)ccc5c4[C@@]31CCN(CC1CC1)[C@@H]2C5 [57-tBu ester] | – | – | – | – | – | – | Ki (DOR; [7]): 0.58 nM; Ki (MOR; [8]): 0.68 nM; Ki (KOR; [9]): 1.78 nM
20 | CO[C@@]12CC[C@@H](N[C@@H](Cc3ccccc3)C(=O)OC(C)(C)C)[C@@H]3Oc4c(O)ccc5c4[C@@]31CCN(CC1CC1)[C@@H]2C5 [58-tBu ester] | – | – | – | – | – | – | Ki (DOR; [7]): 4.56 nM; Ki (MOR; [8]): 2.41 nM; Ki (KOR; [9]): 13.1 nM
